Drawing on the supplement of paper PMC12463676, “Small-molecule dissolution of stress granules by redox modulation benefits ALS models” (Nature Chemical Biology, 2025), this text covers thermal stability z-score for 43 targets.

Compound in one test: NC(=O)CCCCC1CCSS1 [lipoamide]
Briefly: thermal stability z-score vs DMSO; higher = more thermally stabilized by treatment. The conditions noted are these: HeLa, lipoamide concentration 100 µM. The method, then: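 Cellular thermal proteome profiling in HeLa cells. Cells were treated with 100 µM lipoamide for 1 h, with or without 1 mM arsenate for a further 1 h, then heated to ten temperatures (37-66.3 °C), and soluble protein was quantified by TMT mass spectrometry relative to 0.1% DMSO controls. The thermal stability score (sum of log2 fold changes minus the abundance score) was transformed to a z-score; mean of n = 3 experiments.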

Compound in another test: O=[As]([O-])(O)O.[K+] [potassium arsenate]
The description is as above. Particulars: HeLa; arsenate concentration 1 mM. The method, then: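 Cellular thermal proteome profiling in HeLa cells treated with 1 mM arsenate for 1 h (DMSO pretreatment), heated to ten temperatures (37-66.3 °C). Soluble protein was quantified by TMT mass spectrometry relative to DMSO controls; the thermal stability score was transformed to a z-score; mean of n = 3 experiments.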

[1] abbreviates: arsenate co-treatment: 1 mM arsenate 1 h.
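Also: each temperature applied for 3 min, abundance score taken as mean log2 fold change at the two lowest temperatures, z-score obtained by mean subtraction and division by SD.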

Sequence of UniProt P46108 (P46108 whole entry): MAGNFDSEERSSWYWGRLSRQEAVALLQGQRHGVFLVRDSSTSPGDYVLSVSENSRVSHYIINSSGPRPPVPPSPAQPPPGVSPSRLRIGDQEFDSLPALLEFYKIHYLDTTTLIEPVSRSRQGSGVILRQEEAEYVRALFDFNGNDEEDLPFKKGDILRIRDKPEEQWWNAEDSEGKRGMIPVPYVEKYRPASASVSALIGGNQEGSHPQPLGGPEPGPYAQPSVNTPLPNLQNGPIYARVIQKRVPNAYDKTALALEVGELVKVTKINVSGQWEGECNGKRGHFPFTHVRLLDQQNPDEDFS
Sequence of UniProt Q16630 (Q16630 whole entry): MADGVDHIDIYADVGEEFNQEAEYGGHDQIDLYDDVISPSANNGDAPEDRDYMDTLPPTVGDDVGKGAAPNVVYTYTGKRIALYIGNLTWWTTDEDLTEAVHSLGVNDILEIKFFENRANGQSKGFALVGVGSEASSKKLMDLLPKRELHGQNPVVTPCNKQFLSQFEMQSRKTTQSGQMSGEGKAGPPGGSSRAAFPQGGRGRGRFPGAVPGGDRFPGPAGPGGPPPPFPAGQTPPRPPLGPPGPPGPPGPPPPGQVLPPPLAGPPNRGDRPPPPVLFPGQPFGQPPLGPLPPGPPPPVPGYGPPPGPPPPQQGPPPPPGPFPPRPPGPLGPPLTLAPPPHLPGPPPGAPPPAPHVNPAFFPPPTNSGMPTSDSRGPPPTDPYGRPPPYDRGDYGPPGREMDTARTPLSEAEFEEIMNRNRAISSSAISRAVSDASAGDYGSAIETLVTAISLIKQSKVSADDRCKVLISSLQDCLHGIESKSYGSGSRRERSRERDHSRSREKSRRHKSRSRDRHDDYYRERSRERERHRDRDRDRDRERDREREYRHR
Sequence of UniProt Q9BRF8 (Q9BRF8 whole entry): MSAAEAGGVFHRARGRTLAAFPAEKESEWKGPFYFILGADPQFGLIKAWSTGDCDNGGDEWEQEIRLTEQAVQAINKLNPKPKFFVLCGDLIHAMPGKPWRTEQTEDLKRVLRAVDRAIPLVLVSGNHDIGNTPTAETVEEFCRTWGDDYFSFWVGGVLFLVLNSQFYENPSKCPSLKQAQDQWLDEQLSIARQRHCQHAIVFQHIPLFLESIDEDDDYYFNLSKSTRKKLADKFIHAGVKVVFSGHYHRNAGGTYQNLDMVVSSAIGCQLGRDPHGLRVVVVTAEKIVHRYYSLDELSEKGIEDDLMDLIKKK
Sequence of UniProt Q08257 (Q08257 whole entry): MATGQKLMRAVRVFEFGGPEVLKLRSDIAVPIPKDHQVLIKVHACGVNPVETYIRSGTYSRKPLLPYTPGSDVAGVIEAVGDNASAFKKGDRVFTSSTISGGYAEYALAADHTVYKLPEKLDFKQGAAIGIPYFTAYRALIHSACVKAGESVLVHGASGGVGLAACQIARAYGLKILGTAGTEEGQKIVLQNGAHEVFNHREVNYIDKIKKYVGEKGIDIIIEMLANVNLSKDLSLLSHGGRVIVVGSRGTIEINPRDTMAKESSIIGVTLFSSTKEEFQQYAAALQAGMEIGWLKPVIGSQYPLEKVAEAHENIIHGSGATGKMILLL
Sequence of UniProt P24311 (P24311 whole entry): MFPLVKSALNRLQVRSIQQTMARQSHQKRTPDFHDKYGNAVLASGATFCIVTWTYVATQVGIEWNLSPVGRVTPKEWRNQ
Sequence of UniProt P52943 (P52943 whole entry): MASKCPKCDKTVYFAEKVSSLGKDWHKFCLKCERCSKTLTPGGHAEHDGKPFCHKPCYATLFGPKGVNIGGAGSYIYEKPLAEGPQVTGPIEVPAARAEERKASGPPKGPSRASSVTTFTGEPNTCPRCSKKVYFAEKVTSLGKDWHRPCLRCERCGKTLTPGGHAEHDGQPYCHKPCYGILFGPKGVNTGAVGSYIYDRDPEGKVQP
Sequence of UniProt P23786 (P23786 whole entry): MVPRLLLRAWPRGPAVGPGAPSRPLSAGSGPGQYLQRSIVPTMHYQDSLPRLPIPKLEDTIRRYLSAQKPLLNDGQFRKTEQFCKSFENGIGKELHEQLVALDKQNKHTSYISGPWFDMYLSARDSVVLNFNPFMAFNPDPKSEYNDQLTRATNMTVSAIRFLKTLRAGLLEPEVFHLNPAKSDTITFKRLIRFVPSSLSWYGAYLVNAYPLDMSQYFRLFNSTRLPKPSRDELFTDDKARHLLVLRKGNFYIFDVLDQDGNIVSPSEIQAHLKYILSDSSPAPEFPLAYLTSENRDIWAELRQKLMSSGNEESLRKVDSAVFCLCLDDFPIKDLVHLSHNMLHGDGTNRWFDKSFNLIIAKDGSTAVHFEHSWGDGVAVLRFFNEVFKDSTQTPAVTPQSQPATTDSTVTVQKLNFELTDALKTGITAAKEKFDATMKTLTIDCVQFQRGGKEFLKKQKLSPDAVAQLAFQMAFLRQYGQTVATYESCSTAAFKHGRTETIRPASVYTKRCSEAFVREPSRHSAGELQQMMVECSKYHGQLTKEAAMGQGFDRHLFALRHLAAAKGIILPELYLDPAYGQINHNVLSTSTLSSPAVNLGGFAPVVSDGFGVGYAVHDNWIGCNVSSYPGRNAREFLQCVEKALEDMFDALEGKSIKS
Sequence of UniProt Q5RI15 (Q5RI15 whole entry): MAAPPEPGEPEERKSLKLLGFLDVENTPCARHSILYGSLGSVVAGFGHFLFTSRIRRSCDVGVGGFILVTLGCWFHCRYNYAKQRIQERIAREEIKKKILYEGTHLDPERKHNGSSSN
Sequence of UniProt Q9Y6N1 (Q9Y6N1 whole entry): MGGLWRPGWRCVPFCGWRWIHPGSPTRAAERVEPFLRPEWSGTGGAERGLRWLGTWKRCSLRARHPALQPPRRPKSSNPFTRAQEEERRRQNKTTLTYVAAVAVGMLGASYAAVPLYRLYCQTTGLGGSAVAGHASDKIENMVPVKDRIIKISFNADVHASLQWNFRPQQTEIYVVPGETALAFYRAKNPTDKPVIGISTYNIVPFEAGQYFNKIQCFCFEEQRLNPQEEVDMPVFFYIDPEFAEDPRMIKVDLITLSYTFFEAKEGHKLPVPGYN
Sequence of UniProt Q6UXH1 (Q6UXH1 whole entry): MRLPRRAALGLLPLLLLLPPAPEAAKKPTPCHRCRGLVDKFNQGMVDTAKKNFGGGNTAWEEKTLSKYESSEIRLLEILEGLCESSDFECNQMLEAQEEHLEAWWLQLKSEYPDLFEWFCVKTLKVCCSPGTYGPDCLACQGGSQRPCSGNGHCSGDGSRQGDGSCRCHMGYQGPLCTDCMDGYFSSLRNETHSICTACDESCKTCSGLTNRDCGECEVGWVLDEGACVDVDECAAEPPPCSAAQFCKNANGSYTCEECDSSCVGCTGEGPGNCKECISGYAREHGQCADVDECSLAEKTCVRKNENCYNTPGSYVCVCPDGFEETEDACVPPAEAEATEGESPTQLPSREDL
Sequence of UniProt Q9P2I0 (Q9P2I0 whole entry): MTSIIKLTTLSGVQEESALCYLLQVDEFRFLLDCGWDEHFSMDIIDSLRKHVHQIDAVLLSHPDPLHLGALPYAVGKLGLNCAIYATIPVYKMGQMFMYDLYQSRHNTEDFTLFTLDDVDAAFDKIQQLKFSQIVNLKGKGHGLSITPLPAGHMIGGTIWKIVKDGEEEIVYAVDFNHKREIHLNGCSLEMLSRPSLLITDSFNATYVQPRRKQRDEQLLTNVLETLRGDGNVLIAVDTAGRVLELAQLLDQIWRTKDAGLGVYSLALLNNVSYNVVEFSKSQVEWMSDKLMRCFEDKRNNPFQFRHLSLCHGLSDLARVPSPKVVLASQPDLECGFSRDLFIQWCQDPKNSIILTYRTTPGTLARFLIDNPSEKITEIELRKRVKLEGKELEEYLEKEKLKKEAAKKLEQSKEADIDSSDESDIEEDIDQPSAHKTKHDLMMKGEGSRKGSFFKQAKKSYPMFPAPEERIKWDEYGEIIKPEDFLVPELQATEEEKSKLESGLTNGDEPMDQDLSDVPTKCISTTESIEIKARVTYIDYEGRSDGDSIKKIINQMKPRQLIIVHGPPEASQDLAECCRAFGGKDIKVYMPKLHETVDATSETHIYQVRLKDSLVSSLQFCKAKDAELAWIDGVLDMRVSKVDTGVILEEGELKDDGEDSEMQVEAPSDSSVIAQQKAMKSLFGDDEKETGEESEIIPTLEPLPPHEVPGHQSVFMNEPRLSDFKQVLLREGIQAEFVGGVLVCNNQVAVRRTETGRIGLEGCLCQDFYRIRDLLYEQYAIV
Sequence of UniProt Q9BZJ0 (Q9BZJ0 whole entry): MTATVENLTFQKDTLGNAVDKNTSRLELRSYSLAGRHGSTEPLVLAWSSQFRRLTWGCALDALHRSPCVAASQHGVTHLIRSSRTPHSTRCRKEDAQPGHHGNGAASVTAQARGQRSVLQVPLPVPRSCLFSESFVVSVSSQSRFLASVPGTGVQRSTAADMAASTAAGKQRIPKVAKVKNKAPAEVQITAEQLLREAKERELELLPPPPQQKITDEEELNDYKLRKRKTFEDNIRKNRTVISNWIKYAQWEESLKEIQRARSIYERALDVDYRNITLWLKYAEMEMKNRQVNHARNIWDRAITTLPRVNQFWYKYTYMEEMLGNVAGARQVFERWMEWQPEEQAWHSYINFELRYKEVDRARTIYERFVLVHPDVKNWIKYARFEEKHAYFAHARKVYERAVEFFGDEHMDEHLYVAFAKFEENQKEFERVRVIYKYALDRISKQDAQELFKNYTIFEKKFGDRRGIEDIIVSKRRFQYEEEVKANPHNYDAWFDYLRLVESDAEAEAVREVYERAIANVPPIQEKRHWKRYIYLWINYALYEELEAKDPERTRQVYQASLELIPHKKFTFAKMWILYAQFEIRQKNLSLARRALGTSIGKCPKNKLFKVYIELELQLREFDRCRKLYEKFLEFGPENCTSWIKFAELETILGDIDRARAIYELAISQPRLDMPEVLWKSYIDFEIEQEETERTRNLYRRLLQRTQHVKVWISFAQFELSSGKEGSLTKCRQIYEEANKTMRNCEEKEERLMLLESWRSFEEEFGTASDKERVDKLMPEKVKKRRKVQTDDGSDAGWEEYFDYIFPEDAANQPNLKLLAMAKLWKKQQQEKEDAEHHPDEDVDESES
Sequence of UniProt Q49B96 (Q49B96 whole entry): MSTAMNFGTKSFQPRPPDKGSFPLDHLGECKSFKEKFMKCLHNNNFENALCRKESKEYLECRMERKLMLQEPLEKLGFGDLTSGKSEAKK

Take COX7B (UniProt P24311): the thermal stability z-score with lipoamide (setting [1]) is -0.0929; with lipoamide (arsenate co-treatment: none), -0.0319; with potassium arsenate it was -0.0702.

In the case of COX11 (UniProt Q9Y6N1), the thermal stability z-score was 0.0437 with lipoamide (setting [1]), -0.0617 with lipoamide (arsenate co-treatment: none) and 0.0514 with potassium arsenate.

In the case of COX15 (UniProt Q7KZN9), the thermal stability z-score is -0.206 with lipoamide (setting [1]), -0.206 with lipoamide (arsenate co-treatment: none) and 0.257 with potassium arsenate.

For the target COX17 (UniProt Q14061), the thermal stability z-score was -0.762 with lipoamide (setting [1]), -2.24 with lipoamide (arsenate co-treatment: none) and -2.23 with potassium arsenate.

As for COX19 (UniProt Q49B96), the thermal stability z-score came out at 0.659 in the test with lipoamide (setting [1]), 0.945 with lipoamide (arsenate co-treatment: none) and 0.412 in the test with potassium arsenate.

With COX20 (UniProt Q5RI15), the figures for the thermal stability z-score with lipoamide (setting [1]), in the test with lipoamide (arsenate co-treatment: none) and in the test with potassium arsenate were -0.11, -0.155 and -0.19, respectively.

Consider CPA4 (UniProt Q9UI42), for which the thermal stability z-score is -0.883 with lipoamide (setting [1]), -0.642 in the test with lipoamide (arsenate co-treatment: none) and 0.188 in the test with potassium arsenate.

Consider CPD (UniProt O75976), for which the thermal stability z-score was -0.796 in the test with lipoamide (setting [1]), -0.794 in the test with lipoamide (arsenate co-treatment: none) and 0.546 with potassium arsenate.

Regarding CPLX1 (UniProt O14810), the thermal stability z-score with lipoamide (setting [1]) was 0.844; in the test with lipoamide (arsenate co-treatment: none), 1.45; with potassium arsenate, -0.346.

CPM (UniProt P14384): the thermal stability z-score in the test with lipoamide (setting [1]) is 0.0529; in the test with lipoamide (arsenate co-treatment: none), -0.163; with potassium arsenate it was 0.405.

For the target CPNE1 (UniProt Q99829), the thermal stability z-score was 0.0896 in the test with lipoamide (setting [1]), 0.0907 with lipoamide (arsenate co-treatment: none) and -0.934 with potassium arsenate.

As for CPNE3 (UniProt O75131), the thermal stability z-score was 1.73 with lipoamide (setting [1]), 2.22 with lipoamide (arsenate co-treatment: none) and 0.283 with potassium arsenate.

As to CPNE8 (UniProt Q86YQ8), the thermal stability z-score with lipoamide (setting [1]) was 0.773; in the test with lipoamide (arsenate co-treatment: none) it was 1.11; in the test with potassium arsenate, -0.648.

For CPOX (UniProt P36551), the thermal stability z-score is 0.526 with lipoamide (setting [1]), -0.338 with lipoamide (arsenate co-treatment: none) and -0.525 with potassium arsenate.

As to CPPED1 (UniProt Q9BRF8), the thermal stability z-score in the test with lipoamide (setting [1]) was -0.0195; in the test with lipoamide (arsenate co-treatment: none), 0.348; with potassium arsenate, 0.792.

As to CPS1 (UniProt P31327), the thermal stability z-score is -0.756 with lipoamide (setting [1]), 0.095 in the test with lipoamide (arsenate co-treatment: none) and -1.39 with potassium arsenate.

Regarding CPSF1 (UniProt Q10570), the thermal stability z-score with lipoamide (setting [1]) was 0.324; with lipoamide (arsenate co-treatment: none), 0.168; with potassium arsenate it was -0.123.

CPSF2 (UniProt Q9P2I0): the thermal stability z-score with lipoamide (setting [1]) is -0.00974; in the test with lipoamide (arsenate co-treatment: none), -0.136; with potassium arsenate, -0.339.

Consider CPSF3 (UniProt Q9UKF6), for which the thermal stability z-score with lipoamide (setting [1]) is 0.15; with lipoamide (arsenate co-treatment: none), -0.0907; with potassium arsenate it was -0.0903.

For CPSF3L (UniProt Q5TA45), the results for the thermal stability z-score with lipoamide (setting [1]), in the test with lipoamide (arsenate co-treatment: none) and with potassium arsenate were 0.622, 0.702 and 0.178, respectively.

With CPSF6 (UniProt Q16630), the values for the thermal stability z-score with lipoamide (setting [1]), with lipoamide (arsenate co-treatment: none) and in the test with potassium arsenate were 0.848, 1.21 and 0.452, respectively.

Take CPSF7 (UniProt Q8N684): the thermal stability z-score in the test with lipoamide (setting [1]) is 0.18; with lipoamide (arsenate co-treatment: none), 0.191; with potassium arsenate it was -0.36.

As to CPT1A (UniProt P50416), the values for the thermal stability z-score with lipoamide (setting [1]), with lipoamide (arsenate co-treatment: none) and with potassium arsenate were -0.189, -0.268 and -0.161, respectively.

For CPT2 (UniProt P23786), the results for the thermal stability z-score with lipoamide (setting [1]), with lipoamide (arsenate co-treatment: none) and with potassium arsenate were -0.296, 0.0116 and 0.228, respectively.

Turning to CPTP (UniProt Q5TA50), the results for the thermal stability z-score in the test with lipoamide (setting [1]), with lipoamide (arsenate co-treatment: none) and with potassium arsenate were 2.01, 0.706 and 1.5, respectively.

Regarding CRABP2 (UniProt P29373), the thermal stability z-score with lipoamide (setting [1]) turned out to be 0.359; in the test with lipoamide (arsenate co-treatment: none), 1.24; with potassium arsenate, 0.378.

On to CRAT (UniProt P43155), for which the figures for the thermal stability z-score in the test with lipoamide (setting [1]), with lipoamide (arsenate co-treatment: none) and with potassium arsenate were 0.0164, 0.114 and 0.0734, respectively.

As to CRBN (UniProt Q96SW2), the thermal stability z-score in the test with lipoamide (setting [1]) was 0.304; with lipoamide (arsenate co-treatment: none), -0.141; with potassium arsenate it was -0.0801.

For the target CREBBP (UniProt Q92793), the figures for the thermal stability z-score with lipoamide (setting [1]), with lipoamide (arsenate co-treatment: none) and in the test with potassium arsenate were 0.397, -0.0649 and -0.693, respectively.

Consider CRELD1 (UniProt Q96HD1), for which the thermal stability z-score in the test with lipoamide (setting [1]) was -0.249; with lipoamide (arsenate co-treatment: none), -0.193; in the test with potassium arsenate it was -0.113.

With CRELD2 (UniProt Q6UXH1), the thermal stability z-score in the test with lipoamide (setting [1]) is -6.65; with lipoamide (arsenate co-treatment: none) it was -6.33; with potassium arsenate, -0.0409.

As to CRIM1 (UniProt Q9NZV1), the thermal stability z-score is -2.84 in the test with lipoamide (setting [1]), -1.95 with lipoamide (arsenate co-treatment: none) and -2.04 with potassium arsenate.

Regarding CRIP1 (UniProt P50238), the thermal stability z-score with lipoamide (setting [1]) amounted to 1.49; in the test with lipoamide (arsenate co-treatment: none), 1.68; with potassium arsenate, 1.18.

As to CRIP2 (UniProt P52943), the thermal stability z-score in the test with lipoamide (setting [1]) was -0.0467; in the test with lipoamide (arsenate co-treatment: none), 0.146; in the test with potassium arsenate, -0.637.

In the case of CRK (UniProt P46108), the thermal stability z-score in the test with lipoamide (setting [1]) came to 0.951; with lipoamide (arsenate co-treatment: none), 0.233; with potassium arsenate, 1.2.

CRKL (UniProt P46109): the values for the thermal stability z-score with lipoamide (setting [1]), with lipoamide (arsenate co-treatment: none) and in the test with potassium arsenate were 0.0621, 0.384 and 0.656, respectively.

For the target CRLF3 (UniProt Q8IUI8), the thermal stability z-score in the test with lipoamide (setting [1]) is -0.236; in the test with lipoamide (arsenate co-treatment: none), -0.971; with potassium arsenate, 0.0579.

For CRNKL1 (UniProt Q9BZJ0), the thermal stability z-score is 0.288 with lipoamide (setting [1]), 0.156 with lipoamide (arsenate co-treatment: none) and -0.00401 with potassium arsenate.

CRTAP (UniProt O75718): the thermal stability z-score in the test with lipoamide (setting [1]) was -3.99; with lipoamide (arsenate co-treatment: none), -3.27; with potassium arsenate, 0.92.

Turning to CRTC1 (UniProt Q6UUV9), the thermal stability z-score was -0.063 with lipoamide (setting [1]), -0.202 with lipoamide (arsenate co-treatment: none) and -0.151 in the test with potassium arsenate.

Take CRTC3 (UniProt Q6UUV7): the thermal stability z-score in the test with lipoamide (setting [1]) is -0.316; with lipoamide (arsenate co-treatment: none), -0.025; in the test with potassium arsenate, 0.1.

Turning to CRYBG3 (UniProt Q68DQ2), the figures for the thermal stability z-score in the test with lipoamide (setting [1]), with lipoamide (arsenate co-treatment: none) and in the test with potassium arsenate were -0.828, 0.00468 and -0.00726, respectively.

With CRYZ (UniProt Q08257), the thermal stability z-score with lipoamide (setting [1]) turned out to be 0.232; with lipoamide (arsenate co-treatment: none) it was 0.229; with potassium arsenate it was 0.207.
